Key:
Type in all cases: cell-based, murine
Settings in all cases: 10 μM atRA for 4 days
[1] = system: PML/RARα ECoM-G derivatives; experiment: atRA treatment of ECoM-G clones arrested in differentiation by PML/RARα
Method: (§1) Retroviral infection of ECoM-G cells with heterologous oncoproteins. Helper-free retrovirus was generated for wild-type E2a-Pbx1, Hoxa7, Hoxa9, Nup98/HoxA9, Hoxb8, AML1/ETO, PML/RARα and PLZF/RARα constructs cloned into the multiple cloning site of the MSCVneo and MSCVpac retroviral vectors. ECoM-G cells (250,000) from 3 different clones were transduced by spinoculation (as described above) and selected 5 days in G418 (1 mg/ml) or puromycin (1 μg/ml). The cells were washed and plated in media without estrogen. Only those cells that were capable of continued and indefinite proliferation in the absence of estrogen were expanded to generate RNA for Northern analysis.
Analysis of differentiation arrest induced by heterologous oncoproteins in E2a-Pbx1-ER expressing cells. The ECoM cells provide a system in which to dissect the mechanisms of action of oncogenes. Heterologous oncoproteins were introduced into ECoM-G clones by retroviral infection. Expression was verified by immunoblot assay and cells were assayed for the ability to re-establish differentiation arrest following estrogen withdrawal. AML1/ETO, PML/RARα, Hoxa9, Hoxb8 and wild type E2a-Pbx1 prevented granulocytic differentiation of specific clones permitting their continued and indefinite proliferation in the presence of GM-CSF. […]

[2] = system: PLZF/RARα ECoM-G derivatives; experiment: atRA treatment of ECoM-G clones arrested in differentiation by PLZF/RARα
Method: as §1
Analysis of differentiation arrest induced by heterologous oncoproteins in E2a-Pbx1-ER expressing cells. The ECoM cells provide a system in which to dissect the mechanisms of action of oncogenes. Heterologous oncoproteins were introduced into ECoM-G clones by retroviral infection.

[3] = system: parental ECoM-G cells; experiment: atRA treatment of parental ECoM-G cells

CC1=C(/C=C/C(C)=C/C=C/C(C)=C/C(=O)O)C(C)(C)CCC1 [atRA, all-trans-RA]
response to atRA (proliferation, differentiation) [1]: stopped proliferating and underwent quantitative granulocytic differentiation
response to atRA (proliferation, differentiation) [2]: stopped proliferating and underwent quantitative granulocytic differentiation
response to atRA [3]: completely unresponsive

From patent US6884589B2, “Model for myeloid cell growth, differentiation and disease” (Regents of the University of California, priority 2000, dated 2005)
